Measured values from US9657035B1, “Method of treating cancer and gold(III) complexes as anti-cancer agents” (KING FAHD UNIVERSITY OF PETROLEUM AND MINERALS, priority 2015, dated 2017).

Assays:
[1] = tested on: ovarian epithelial carcinoma-derived cancer cells A2780; assay: Cell proliferation MTT assay, 72 h; assay type: cell-based, human; settings: mean±SEM
Method: (§1) Complexes 1 and 2 were dissolved (10 mM) in DMSO and stored at -80° C. at volumes of 500 μL or aliquots with volumes of 10 μL were taken and stored at -20° C. (used once without refreezing). The compounds were then diluted in RPMI medium immediately before use. Cisplatin was purchased from Mayne Pharma. Culture medium with the same amount of drug-free DMSO was used as a negative control. The classical Hodgkin lymphoma L-540 cell line was obtained from the German Collection of Microorganisms and Cell Cultures (Braunschweig, Germany). Human ovarian epithelial carcinoma-derived cancer cells A2780 and its cisplatin-resistant clone A2780cis were from Sigma, Inc. (St. Louis, Mo., USA). The parent cisplatin-resistant subclone A2780cis was maintained by weekly treatment with 1 μM cisplatin ([…]. Celegato, C. Borghese, M. Mongiat, A. Colombatti, and D. Aldinucci, Clin. Cancer Res. vol. 20, pp. 5496-5506, 2014, incorporated herein by reference in its entirety). Cells were cultured at 37° C. in 5% CO2 in RPMI medium supplemented with 10% heat-inactivated FBS, 0.1% (w/v) L-glutamine and antibiotics (0.2 mg/mL penicillin and streptomycin). For the cell proliferation assay, 4.0×10^3 A2780 and A2780cis cells were seeded in 96-well flat-bottomed microplates in RPMI medium (100 μL) and incubated at 37° C. in a 5% CO2 atmosphere for 24 h (to allow cell adhesion) before drug testing. The medium was then removed and replaced with fresh medium containing the compounds to be tested and cisplatin at increasing concentrations (from 1 to 100 μM) at 37° C. for 72 h. Each treatment was performed in triplicate. Cell proliferation was assayed using the MTT assay. L-540 cells (2.0×10^5/ml) were seeded in 48-well plates and treated with increasing concentrations of complex 1 and complex 2. After 72 hours, the number of viable cells was evaluated by a trypan blue dye exclusion. The IC50 values (i.e., the half maximal inhibitory concentration, representing the concentration of a substance required for 50% inhibition in vitro) were calculated using CalcuSyn software (Biosoft, Ferguson, Mo., USA) (T. C. Chou, and P. Talalay, Adv. Enzyme Regul. vol. 22, pp. 27-55, 1984, incorporated herein by reference in its entirety). The results were presented as the mean±SEM of three replicate wells from three independent experiments. The cells were imaged under an inverted microscope (Eclipse TS/100, Nikon) with a photomicrographic system (DS Camera Control Unit DS-L2). Phase contrast micrographs were taken at a magnification of 4× (for L-540 cells) and 10× (for A2780 and A2780cis cells).

[2] = tested on: cisplatin-resistant clone A2780cis; assay: Cell proliferation MTT assay, 72 h; assay type: cell-based, human; settings: for IC50: A2780cis cells, 72 h, MTT, mean±SEM; for Fold resistance A2780cis/A2780 ratio: ratio of IC50 A2780cis to A2780
Method: as §1

[3] = tested on: classical Hodgkin lymphoma L-540 cell line; assay: In vitro cytotoxicity, trypan blue dye exclusion, 72 h; assay type: cell-based, human; settings: L-540 cells; for IC50: trypan blue assay
Method: Complexes 1 and 2 were dissolved (10 mM) in DMSO and stored at −80° C. at volumes of 500 μL or aliquots with volumes of 10 μL were taken and stored at −20° C. (used once without refreezing). The compounds were then diluted in RPMI medium immediately before use. Cisplatin was purchased from Mayne Pharma. Culture medium with the same amount of drug-free DMSO was used as a negative control.
The classical Hodgkin lymphoma L-540 cell line was obtained from the German Collection of Microorganisms and Cell Cultures (Braunschweig, Germany). Human ovarian epithelial carcinoma-derived cancer cells A2780 and its cisplatin-resistant clone A2780cis were from Sigma, Inc. (St. Louis, Mo., USA). The parent cisplatin-resistant subclone A2780cis was maintained by weekly treatment with 1 μM cisplatin (N. Casagrande, M. Celegato, C. Borghese, M. Mongiat, A. Colombatti, and D. Aldinucci, Clin. Cancer Res. vol. 20, pp. 5496-5506, 2014, incorporated herein by reference in its entirety). Cells were cultured at 37° C. in 5% CO2 in RPMI medium supplemented with 10% heat-inactivated FBS, 0.1% (w/v) L-glutamine and antibiotics (0.2 mg/mL penicillin and streptomycin).
For the cell proliferation assay, 4.0×10^3 A2780 and A2780cis cells were seeded in 96-well flat-bottomed microplates in RPMI medium (100 μL) and incubated at 37° C. in a 5% CO2 atmosphere for 24 h (to allow cell adhesion) before drug testing. The medium was then removed and replaced with fresh medium containing the compounds to be tested and cisplatin at increasing concentrations (from 1 to 100 μM) at 37° C. for 72 h. Each treatment was performed in triplicate. Cell proliferation was assayed using the MTT assay. L-540 cells (2.0×10^5/ml) were seeded in 48-well plates and treated with increasing concentrations of complex 1 and complex 2. After 72 hours, the number of viable cells was evaluated by a trypan blue dye exclusion. […]

[4] = Kinetics of substitution reaction of gold(III) complexes with glutathione (UV-vis, 297 nm); assay type: physicochemical; settings: for second-order rate constant k for the reaction with GSH: at 298K, 20 mM NaCl, 297 nm; for ΔH^† activation enthalpy, reaction with GSH / ΔS^† activation entropy, reaction with GSH: from Eyring plots
Method: All kinetics measurements were made using a UV-vis spectrophotometer (Agilent Technologies, Cary 100 UV-Vis). Scanning kinetic mode was used to investigate the change in the electronic spectra for gold(III) complexes upon interaction with GSH to determine the effective wavelength for the reactions. Then, the kinetic mode was used to monitor the reaction progress at the selected wavelength. A solution containing 0.2 mM gold(III) complexes was prepared in water, and 40 mM sodium chloride was added to improve the stability of the mononuclear-gold(III) complexes by preventing hydrolysis of the chlorides (A. Djeković, B. Petrović, Z. D. Bugarcić, R. Puchta, and R. van Eldik, Dalton Trans., vol. 41, no. 13, pp. 3633-41, 2012, incorporated herein by reference in its entirety). A series of GSH solutions was also prepared. Equal volumes of gold(III) complex solution and GSH solution were mixed, and the spectral changes recorded using the scanning kinetic mode in the range from 200 nm to 350 nm. Then, the kinetic mode was used to follow the reaction at three different temperatures. The reaction between the gold(III)-diamine complexes and the GSH ligand to form gold(III)-complexes can be illustrated in following equation: […]
The rate (k) of the described reactions can be calculated from the slope of the linear plot of kobs versus GSH concentration according to eqn (1), where the rate of the reverse reaction (k−1) is obtained from the intercept of the straight line. kobs=k[GSH]+k−1[Cl] Eqn (1)
Using Microsoft Excel, the rate constants and activation parameters were calculated from Eyring plots: […]
The kinetics of the substitution reaction between the synthesized anticancer gold(III) complexes 1 and 2 with tripeptide glutathione were investigated spectrophotometrically by monitoring the spectral changes of the gold(III) complexes in solution with excess of GSH. […] Equal volumes of the gold(III) complexes and GSH were kept until thermal equilibration was achieved and then mixed directly inside a UV cell. The changes in the absorption at a selected wavelength (297 nm) under pseudo-first order conditions as functions of the glutathione concentration and temperature were collected. The […] rate constant (k) was obtained from the linear plot of kobs versus the total GSH concentration (1). NaCl was added in excess to avoid the hydrolysis of mononuclear-gold(III) diamine chloride, but this was not found to be effective for complex 2 (FIG. 2).

SMILES | IC50 ([1]; listed as 2) [µM] | IC50 ([1]; listed as (2)) [µM] | IC50 [2] [µM] | Fold resistance A2780cis/A2780 ratio [2] | fold more active than complex 1 (L-540 IC50) [3] [fold] | IC50 [3] [µM] | Ea activation energy, reaction with GSH [4] [kcal/mol] | second-order rate constant k for the reaction with GSH [4] [M⁻¹ s⁻¹] | ΔH^† activation enthalpy, reaction with GSH [4] [kcal/mol] | ΔS^† activation entropy, reaction with GSH [4] [JK^−1mol^−1] | IC50 [1] [µM] | Fold resistance A2780cis/A2780 ratio ([2]; listed as cisplatin)
NC1CCCCC1N.NC1CCCCC1N.[Au+3].[Cl-].[Cl-].[Cl-] [Complex 2, 1(R),2(R)-[(DACH)2Au]Cl3] | 6.98 | 6.9 ± 0.6 | 31.1 | 4.45 | 7 | 9.8 | 4.54 | 0.31 | 4.06 | −189 | – | –
N.N.[Cl][Pt][Cl] [Cisplatin, reference compound] | – | – | 17.6 | 9.77 | – | – | – | – | – | – | 1.8 | 9.7
NC1CCCCC1N.[Au+3].[Cl-].[Cl-].[Cl-] [Complex 1, 1(R),2(R)-[(DACH)AuCl2]Cl] | – | – | 61.3 | 3.90 | – | 70.4 | 7.65 | 1.14 | 7.17 | −137 | 15.7 | –
